Activity calls are given as the source filed them.
Assays:
[1] = target: T1, Nuclear factor erythroid 2-related factor 2 (Homo sapiens) (UniProt Q16236); assay: Activation of NRF2 in human MHCC97H cells treated for 8 to 24 hrs by immunoblot analysis; format: cell-based; conditions: filed as activator, dose 10-40 µM, time 8-24 hrs
T1 sequence (whole entry): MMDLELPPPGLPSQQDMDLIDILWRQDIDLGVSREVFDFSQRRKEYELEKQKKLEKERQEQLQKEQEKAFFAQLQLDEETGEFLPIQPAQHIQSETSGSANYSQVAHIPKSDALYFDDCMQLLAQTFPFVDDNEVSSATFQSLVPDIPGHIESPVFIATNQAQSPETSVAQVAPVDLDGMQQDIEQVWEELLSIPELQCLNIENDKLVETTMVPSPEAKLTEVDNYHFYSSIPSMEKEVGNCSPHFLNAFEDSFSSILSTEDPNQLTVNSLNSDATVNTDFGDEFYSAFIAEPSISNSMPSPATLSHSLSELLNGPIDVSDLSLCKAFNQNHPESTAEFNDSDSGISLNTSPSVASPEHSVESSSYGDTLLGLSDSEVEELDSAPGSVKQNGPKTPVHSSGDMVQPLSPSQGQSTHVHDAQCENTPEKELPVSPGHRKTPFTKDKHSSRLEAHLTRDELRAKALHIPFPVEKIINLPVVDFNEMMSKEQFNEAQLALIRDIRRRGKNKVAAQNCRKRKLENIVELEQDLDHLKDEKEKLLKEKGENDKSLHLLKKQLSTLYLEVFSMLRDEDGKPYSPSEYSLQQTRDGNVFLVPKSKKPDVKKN

[2] = target: T1, Nuclear factor erythroid 2-related factor 2 (Homo sapiens); assay: Activation of NRF2 in human HepG2 cells treated for 8 to 24 hrs by immunoblot analysis; format: cell-based; conditions: filed as activator, dose 10-40 µM, time 8-24 hrs
[3] = target: T2, Nuclear factor erythroid 2-related factor 2 (Mus musculus) (UniProt Q60795); assay: Activation of NRF2 in mouse BNL CL.2 cells treated for 8 to 24 hrs by immunoblot analysis; format: cell-based; conditions: filed as activator, dose 10-40 µM, time 8-24 hrs
T2 sequence (whole entry): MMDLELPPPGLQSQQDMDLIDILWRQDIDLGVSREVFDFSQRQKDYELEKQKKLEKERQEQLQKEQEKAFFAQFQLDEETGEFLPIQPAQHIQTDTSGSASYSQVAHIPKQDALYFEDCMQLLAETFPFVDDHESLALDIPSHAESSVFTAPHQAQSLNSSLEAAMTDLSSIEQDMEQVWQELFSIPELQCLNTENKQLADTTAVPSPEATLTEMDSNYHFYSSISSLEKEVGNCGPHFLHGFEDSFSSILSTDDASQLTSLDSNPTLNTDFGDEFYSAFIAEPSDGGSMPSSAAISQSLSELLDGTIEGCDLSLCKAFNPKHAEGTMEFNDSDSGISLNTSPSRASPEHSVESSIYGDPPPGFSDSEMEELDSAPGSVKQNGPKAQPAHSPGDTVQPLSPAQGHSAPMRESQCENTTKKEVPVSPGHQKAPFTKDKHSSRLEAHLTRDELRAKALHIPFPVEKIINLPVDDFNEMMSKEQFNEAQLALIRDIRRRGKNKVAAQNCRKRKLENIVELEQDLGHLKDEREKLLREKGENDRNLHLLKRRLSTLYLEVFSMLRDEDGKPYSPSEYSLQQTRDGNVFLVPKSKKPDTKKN

[4] = system: BNL CL.2; assay: Effect on KEAP1 protein level in mouse BNL CL.2 cells assessed as no change in level at 40 uM measured upto 24 hrs; format: functional, cell-based; conditions: filed as activator
[5] = system: Mus musculus; assay: In vivo activation of NRF2 in C57BL/6J mouse liver assessed as upregulation of NRF2 level administered at 40 mg/kg, ip 3 times in a day by immunohistochemistry analysis; format: functional, organism-based; conditions: filed as activator, time 1.0 day
[6] = target: T2, Nuclear factor erythroid 2-related factor 2 (Mus musculus); assay: Activation of NRF2 in mouse BNL CL.2 cells assessed as increase in Akr1c1 gene level upto 40 uM incubated upto 24 hrs by rt-qPCR analysis; format: cell-based; conditions: filed as activator
[7] = target: T2, Nuclear factor erythroid 2-related factor 2 (Mus musculus); assay: Activation of NRF2 in mouse BNL CL.2 cells assessed as increase in Gclm gene level upto 40 uM incubated upto 24 hrs by rt-qPCR analysis; format: cell-based; conditions: filed as activator
[8] = target: T2, Nuclear factor erythroid 2-related factor 2 (Mus musculus); assay: Activation of NRF2 in mouse BNL CL.2 cells assessed as increase in Hmox1 gene level upto 40 uM incubated upto 24 hrs by rt-qPCR analysis; format: cell-based; conditions: filed as activator
[9] = target: T2, Nuclear factor erythroid 2-related factor 2 (Mus musculus); assay: Ubiquitination activity in Flag-tagged NRF2 in mouse BNL CL.2 cells at 40 uM for 24 hrs followed by MG132 treatment for 4 hrs by immunoprecipitation assay; format: cell-based
[10] = target: T2, Nuclear factor erythroid 2-related factor 2 (Mus musculus); assay: Binding affinity to Flag-tagged NRF2 in mouse BNL CL.2 cells assessed as increase in protein half life treated upto 45 mins with compound; format: cell-based; conditions: filed as activator
[11] = target: T2, Nuclear factor erythroid 2-related factor 2 (Mus musculus); assay: Activation of flag-tagged NRF2 in mouse BNL CL.2 cells in presence of wildtype His-tagged KEAP1 at 40 uM for 24 hrs followed by treatment with MG132 for 4 hrs by immunoblot assay; format: cell-based; conditions: filed as activator
[12] = target: T2, Nuclear factor erythroid 2-related factor 2 (Mus musculus); assay: Activation of flag-tagged NRF2 in mouse BNL CL.2 cells in presence of His-tagged KEAP1 C151S mutant at 40 uM for 24 hrs followed by treatment with MG132 for 4 hrs by immunoblot assay; format: cell-based; conditions: filed as activator
[13] = target: Kelch-like ECH-associated protein 1/Nuclear factor erythroid 2-related factor 2 (Mus musculus) (UniProt Q60795+Q9Z2X8); assay: Inhibition of in flag-tagged NRF2/wildtype His-tagged KEAP1 in mouse BNL CL.2 cells and protein-protein interaction at 40 uM for 24 hrs followed by treatment with MG132 for 4 hrs by immunoblot assay; format: cell-based; conditions: filed as activator
Sequence of Kelch-like ECH-associated protein 1/Nuclear factor erythroid 2-related factor 2 (Mus musculus) (Q9Z2X8 whole entry, looked up, one chain of several): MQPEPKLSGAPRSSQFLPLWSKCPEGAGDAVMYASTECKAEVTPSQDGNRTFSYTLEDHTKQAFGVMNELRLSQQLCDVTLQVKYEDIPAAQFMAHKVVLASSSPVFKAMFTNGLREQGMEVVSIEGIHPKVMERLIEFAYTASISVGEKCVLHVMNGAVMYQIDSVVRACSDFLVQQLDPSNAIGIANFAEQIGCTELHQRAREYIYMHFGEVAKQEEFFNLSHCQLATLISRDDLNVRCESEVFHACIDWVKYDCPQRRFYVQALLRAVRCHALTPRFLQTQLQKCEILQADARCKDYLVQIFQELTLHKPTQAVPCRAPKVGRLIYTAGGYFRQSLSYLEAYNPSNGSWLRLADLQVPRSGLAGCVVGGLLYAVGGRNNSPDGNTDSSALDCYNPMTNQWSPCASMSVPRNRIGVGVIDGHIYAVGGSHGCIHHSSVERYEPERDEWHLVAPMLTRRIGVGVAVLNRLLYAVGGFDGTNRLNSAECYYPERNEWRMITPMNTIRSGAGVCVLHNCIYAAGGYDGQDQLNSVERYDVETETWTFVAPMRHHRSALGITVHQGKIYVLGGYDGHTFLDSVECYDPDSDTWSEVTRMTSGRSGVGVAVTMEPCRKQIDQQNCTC

[14] = system: BNL CL.2; assay: Effect of ROS generation in mouse BNL CL.2 cells incubated at 10 uM for 24 hrs (reference value: 9.42%); format: functional
[15] = system: BNL CL.2; assay: Effect of ROS generation in mouse BNL CL.2 cells incubated at 20 uM for 24 hrs (reference value: 9.42%); format: functional
[16] = system: BNL CL.2; assay: Effect of ROS generation in mouse BNL CL.2 cells incubated at 40 uM for 24 hrs (reference value: 9.42%); format: functional
[17] = system: BNL CL.2; assay: Inhibition of autophagy in mouse BNL CL.2 cells assessed as increase in p62 level incubated upto 80 uM for 24 hrs by immunoblotting analysis; format: functional, cell-based
[18] = system: BNL CL.2; assay: Inhibition of autophagy in mouse BNL CL.2 cells assessed as decrease in LC3-II level incubated upto 80 uM for 24 hrs by immunoblotting analysis; format: functional, cell-based
[19] = system: BNL CL.2; assay: Inhibition of autophagy in mouse BNL CL.2 cells assessed as suppression of autophagosome formation by measuring reduction in red puncta incubated upto 80 uM for 24 hrs by immuno fluoroscence analysis; format: functional, cell-based
[20] = system: BNL CL.2; assay: Inhibition of autophagy in mouse BNL CL.2 cells assessed as suppression of autophagosome formation by measuring reduction in yellow puncta incubated upto 80 uM for 24 hrs by immuno fluoroscence analysis; format: functional, cell-based
[21] = system: BNL CL.2; assay: Inhibition of autophagy in mouse BNL CL.2 cells assessed as suppression of autolysosome formation by measuring reduction in red puncta incubated upto 80 uM for 24 hrs by immuno fluoroscence analysis; format: functional, cell-based
[22] = system: BNL CL.2; assay: Inhibition of autophagy in mouse BNL CL.2 cells assessed as suppression of autolysosome formation by measuring reduction in yellow puncta incubated upto 80 uM for 24 hrs by immuno fluoroscence analysis; format: functional, cell-based
[23] = system: Mus musculus; assay: Hepatoprotective activity against cisplatin induced liver injury […] mouse model assessed as no change in liver to body weight ratio at 40 mg/kg, ip administered every 24 hrs for 72 hrs; format: functional, organism-based
[24] = system: Mus musculus; assay: Hepatoprotective activity against cisplatin induced liver injury […] mouse model assessed as rescue of hepatocellular edema at 40 mg/kg, ip administered every 24 hrs for 72 hrs; format: functional, organism-based
[25] = system: Mus musculus; assay: Hepatoprotective activity against cisplatin induced liver injury […] mouse model assessed as rescue of disorder arrangement of hepatic cord at 40 mg/kg, ip administered every 24 hrs for 72 hrs; format: functional, organism-based
[26] = system: Mus musculus; assay: Hepatoprotective activity against cisplatin induced liver injury […] mouse model assessed as reduction of ALT in serum at 40 mg/kg, ip administered every 24 hrs for 72 hrs; format: functional, organism-based
[27] = system: Mus musculus; assay: Hepatoprotective activity against cisplatin induced liver injury […] mouse model assessed as reduction of AST in serum at 40 mg/kg, ip administered every 24 hrs for 72 hrs; format: functional, organism-based
[28] = system: Mus musculus; assay: Hepatoprotective activity against cisplatin induced liver injury […] mouse model assessed as reduction of MDA in liver tissue at 40 mg/kg, ip administered every 24 hrs for 72 hrs; format: functional, organism-based
[29] = system: Mus musculus; assay: Hepatoprotective activity against cisplatin induced liver injury […] mouse model assessed as reduction of […] in liver tissue at 40 mg/kg, ip administered every 24 hrs for 72 hrs; format: functional, organism-based
[30] = system: Mus musculus; assay: Hepatoprotective activity against cisplatin induced liver injury […] mouse model assessed as increase of NRF2 expression in liver tissue at 40 mg/kg, ip administered every 24 hrs for 72 hrs by IHC staining analysis; format: functional, organism-based
[31] = system: BNL CL.2; assay: Effect on p62 level in mouse BNL CL.2 NRF2 knockout cells assessed as increase in protein level treated at 40 uM for 24 hrs by immunoblot analysis; format: functional, cell-based
[32] = system: BNL CL.2; assay: Effect on KEAP1 level in mouse BNL CL.2 NRF2 knockout cells assessed as no change treated at 40 uM for 24 hrs by immunoblot analysis; format: functional, cell-based
[33] = system: BNL CL.2; assay: Effect on KEAP1 level in mouse BNL CL.2 cells assessed as no change treated at 40 uM for 24 hrs by immunoblot analysis; format: functional, cell-based
[34] = system: BNL CL.2; assay: Effect of ROS generation in cisplatin induced hepatotoxicity in mouse BNL CL.2 NRF2 knockout cells assessed as increase in ROS level treated at 40 uM for 24 hrs; format: functional, cell-based
[35] = system: BNL CL.2; assay: Effect of ROS generation in cisplatin induced hepatotoxicity in mouse BNL CL.2 NRF2 cells assessed as increase in ROS level treated at 40 uM for 24 hrs; format: functional, cell-based
[36] = system: BNL CL.2; assay: Effect of ROS generation in mouse BNL CL.2 NRF2 knockout cells assessed as increase in ROS level treated at 40 uM for 24 hrs (reference value: 10.6%); format: functional
[37] = system: BNL CL.2; assay: Effect of ROS generation in cisplatin induced hepatotoxicity in mouse BNL CL.2 NRF2 knockout cells assessed as increase in ROS level treated at 40 uM for 24 hrs (reference value: 93.8%); format: functional
[38] = system: BNL CL.2; assay: Effect of ROS generation in mouse BNL CL.2 cells assessed as increase in ROS level treated at 40 uM for 24 hrs (reference value: 8.04%); format: functional
[39] = system: BNL CL.2; assay: Effect of ROS generation in cisplatin induced hepatotoxicity in mouse BNL CL.2 cells assessed as increase in ROS level treated at 40 uM for 24 hrs (reference value: 83%); format: functional
[40] = system: BNL CL.2; assay: Upregulation of […] mRNA expression in mouse […] CL.2 cells; format: functional, cell-based
[41] = system: BNL CL.2; assay: Upregulation of ARSG mRNA expression in mouse […] CL.2 cells; format: functional, cell-based
[42] = system: BNL CL.2; assay: Upregulation of CCDC122 mRNA expression in mouse […] cells; format: functional, cell-based
[43] = system: BNL CL.2; assay: Upregulation of DYNLT1 mRNA expression in mouse […] cells; format: functional, cell-based
[44] = system: BNL CL.2; assay: Upregulation of DZANK1 mRNA expression in mouse […] cells; format: functional, cell-based
[45] = system: BNL CL.2; assay: Upregulation of HIPK4 mRNA expression in mouse […] cells; format: functional, cell-based
[46] = system: BNL CL.2; assay: Upregulation of NOTUM mRNA expression in mouse […] cells; format: functional, cell-based
[47] = system: BNL CL.2; assay: Upregulation of OAS1 mRNA expression in mouse […] cells; format: functional, cell-based

O=C1C[C@@H](c2ccc(O)cc2)Oc2cc(O)ccc21 [LIQUIRTIGENIN]
76%: Activity [39]
active: Activity [1] Dose-Dependent Effect | Activity [2] Dose-Dependent Effect | Activity [3] Dose-Dependent Effect | Activity [4] | Activity [5] | Activity [6] | Activity [7] | Activity [8] | Activity [10] | Activity [11] | Activity [12] | inhibition [13] | inhibition [17] | inhibition [18] | inhibition [19] | inhibition [20] | inhibition [21] | inhibition [22] | Activity [23] | Activity [24] | Activity [25] | Activity [26] | Activity [27] | Activity [28] | Activity [29] | Activity [30] | Activity [31] | Activity [32] | Activity [33] | Activity [34] | Activity [35] | Activity [40] | Activity [41] | Activity [42] | Activity [43] | Activity [44] | Activity [45] | Activity [46] | Activity [47]
4.52%: Activity [16]
inactive: Activity [9]
2.26%: Activity [38]
91.9%: Activity [37]
9.8%: Activity [14]
8.04%: Activity [36]
9.34%: Activity [15]

Reference: ChEMBL document CHEMBL5360640, “Liquiritigenin Confers Liver Protection by Enhancing NRF2 Signaling through Both Canonical and Non-canonical Signaling Pathways” (2023)
